One compound from patent US11160788B2, “Caspase-1 inhibition and uses thereof for prevention and treatment of neurological conditions” (priority 2016, dated 2021) can be followed below.

“Also recorded” adds a separate entry of the source.

Common to all, as to assay type: in vivo, mouse
The subject of assay [1] is J20 mice. The assay is described as follows: ELISA of II-1β and other cytokines, treated symptomatic J20 mice. The source says:
FIG. 10: VX-765 reverses neuroinflammation in J20 mice. (a) Iba-1 positive microglia immunohistographs in the stratum lacunosum molecular area of the hippocampus and S1 of cortex (Scale bar=50 μm). (b) Stereological quantification of Iba-1^+ microglia for WT+Vehicle (n=6), J20+Vehicle (n=5), and J20+VX-765 (n=4) in the hippocampus from the pyramidal cell layer to the stratum lacunosum molecular layer (F(2,11)=58, p<0.0001) and cortex (F(2,11)=39.95, p<0.0001, ANOVA, Dunnett's post-hoc compared to J20+Vehicle, ***p<0.001). (c) Average percentage distribution of morphological microglial subtypes 1 (black (lowermost) bar), 2 (light grey bar), 3 (dark grey bar) and 4 (black (uppermost) bar). (d) II1-β pg/mg levels measured by ELISA in pre-treated J20 at 5 months of age and in treated WT and J20 8 months of age. (e) Astroglial GFAP^+ immunohistographs.
(§1) FIG. 18: ELISA measures of cytokines in vehicle-treated WT and J20 mice and VX-765-treated J20 mice. (a) Plasma levels of II-1β in mice after T3. (b) Cytokine levels in vehicle-treated WT and J20 and in VX-765-treated J20 brain hippocampi and cortex. (c) GFAP immunostaining density in vehicle-treated WT (n=6) and J20 (n=5) and in VX-765-treated J20 (n=4) brain hippocampi (F(2,12)=5.234, p=0.0232, ANOVA, Dunnett's post-hoc compared to WT+Vehicle, *p<0.05) and cortex. (d) Western blots and quantitative analyses of GFAP in vehicle-treated WT and J20 and in VX-765-treated J20 brain hippocampi and cortex.
(§2) To assess AD-like pathology, immunohistochemical analyses were performed to detect amyloid deposition (anti-AβF25276)^5,6, microglial (Iba1) activation^7, astrogliosis (GFAP), synaptophysin protein levels on coronal brain sections. Multiplex MSD ELISA was used to assess Aβ levels and 38,40, and 42 subtypes, and II-1β brain levels. RT-PCR was used to assess levels of human APP^Sw/Ind.
Background: In an ELISA, binding on a coated surface is turned into a signal by an enzyme label.

Assay [2] concerns J20 mice. As to the kind of experiment: Novel object recognition (NOR), treatment of symptomatic J20 mice. The note with it: for NOR behavior: 10 mg/kg; for NOR discrimination index: 25 mg/kg; for NOR deficit: 50 mg/kg IP. The text has this:
FIG. 8: VX-765 treatment restores cognitive function in J20 mice. (a) Experimental paradigm. Intraperitoneal vehicle-injected wild type (WT+Vehicle; n=13) and J20 mice (J20+Vehicle: n=9), and VX-765-injected J20 mice (J20+VX-765: n=9) mice were behaviourally assessed at 5 different time-points: baseline before treatment (baseline untreated J20 were grouped together; n=18), after 3 IP injections/wk of VX-765 or vehicle (Treatment 1), after 6 additional injections over 2 weeks (Treatment 2), after 4-week Washout period, and after an additional 3 injections in one week (Treatment 3). Mice were sacrificed at 8 months of age after Treatment 3 (b) NOR Discrimination index (Treatment main effect, F(2,20)=85.8, p<0.0001; Time main effect, F(4,80)=4.188, p=0.0039; Treatment×Time interaction, F(8,80)=[…], two-way repeated-measures ANOVA, Dunnett's post-hoc compared to J20+Vehicle). (c) Distance traveled during Open Field task. Data analyzed by repeated measures two-way ANOVA (Treatment main effect, F(2,19)=11.47, p=0.0005; Treatment×Time interaction, F(8,76)=5.69, p<0.0001, two-way repeated-measures ANOVA, Dunnett's post-hoc compared to J20+Vehicle). (d-i) Barnes maze analysis. Learning acquisition (d,g), probe test primary latency and errors (e,h), and target hole preference (f,i); # of pokes of each hole labelled +1 to +9 to the right or −1 to −9 to the left of the target hole during the probe) after Treatment 2 (d-f) and Washout (g-i). Probe tests were analyzed (Treatment 2 primary latency, F(2,52)=5.879, p=0.0050; Treatment 2 primary errors, F(2,52)=9.998, p=0.0002; Washout primary latency, F(2,22)=4.076, p=0.0312; Washout primary errors, F(2,22)=10.84, p=0.0005, ANOVA, Tukey's post-hoc). * p<0.05, ***p<0.001, ****p<0.0001.
[…] The 20-week-old mice were treated per the paradigm in section. VX-765 reverses episodic memory deficits in the J20 mouse.
Anxiety and hyperactivity are monitored in an open-field paradigm, episodic memory with the NOR, spatial memory with the Barnes maze, and short or long term working memory with the Y maze before and after treatments. Repeated measures are acceptable for the NOR, Barnes and Y maze^2-4.
J20 and littermate WT mice (20 wks) were first tested for episodic memory deficits with Novel Object Recognition (NOR) and anxiety and hyperactivity in an open-field paradigm. […] The injections were continued for 2 weeks at 3 injections/week (48 hr intervals between injections and 3 day interval between weeks) and mice retested. […]

Assay [3] relates to J20 mice. As to the kind of experiment: Amyloid immunostaining and ELISA, preventive treatment of J20 mice. The text has this:
FIG. 24: Immunostaining of mice brains at 8 months of age (20 week washout) with anti-amyloid beta peptide 1-40 antiserum (a). […] (b) Quantitation of the immunopositive density of amyloid staining at 4, 8, 12, 16, and 20 weeks washout of VX-765 when mice are 4, 5, 6, 7, and 8 months respectively. (c) ELISA analyses of RIPA-soluble and formic-acid soluble hippocampal and cortical tissue protein extracts.
We directly tested whether pre-symptomatic inhibition of inflammation in a mouse genetic model of Alzheimer disease can stem the progression of memory and behavioral deficits, and Alzheimer disease-like pathology. The J20 amyloid precursor protein Swedish/Indiana mutant mouse was treated at 2 months of age for a one month period with 50 mg/Kg Caspase-1 inhibitor VX-765 (FIG. 22a).

The subject of assay [4] is J20 mice. As to the kind of experiment: GFAP astrogliosis, treated symptomatic J20 mice brains. Conditions: 50 mg/kg.
Source text: as §1, §2

Turning to `CCO[C@@H]1OC(=O)C[C@@H]1NC(=O)[C@@H]1CCCN1C(=O)[C@@H](NC(=O)c1ccc(N)c(Cl)c1)C(C)(C)C` [VX-765, (S)-1-((S)-2-{[1-(4-amino-3-chloro-phenyl)-methanoyl]-amino}-3,3-dimethyl-butanoyl)-pyrrolidine-2-carboxylic acid ((2R,3S)-2-ethoxy-5-oxo-tetrahydro-furan-3-yl)-amide], the “TNFα protein level in hippocampi” value with J20 mice [1] was “returned to normal”. Besides, in the assay with J20 mice [1] (50 mg/kg, after Treatment 3), the “II-1β level in hippocampus” value is “reduced after VX-765 treatment”. Further, the “II-1β level in plasma” value in the assay with J20 mice [1] (after Treatment 3) is “No changes were seen”. In addition, in the assay on J20 mice [1] (brain hippocampi and cortex), the “other inflammatory protein levels (TNF-α, KC-GRO, IFN-γ)” value is reported as “No significant difference”. Further, the NOR behavior entry in the assay on J20 mice [2] (Treatment 1 and 2) was “normalized NOR behavior only after T2”; in the assay on J20 mice [2] (Treatment 3), “reappeared after T3”; in the assay with J20 mice [2] (washout), “washed out”. Besides, the NOR discrimination index result in the assay with J20 mice [2] (Treatment 1) was “normalized”; in the assay on J20 mice [2] (Treatment 2), “normalized”; with J20 mice [2] (Treatment 3), “returned to normal at T3”; in the assay on J20 mice [2] (washout), “deficits reappeared after WO”. Also, the NOR deficit result in the assay with J20 mice [2] (after 3 injections (Treatment 1)) was “reverted to normal; also recorded: reversed and reached near-normal levels”; in the assay with J20 mice [2] (after 3 more injections (Treatment 3)), “attenuated NOR deficits; also recorded: disappeared again after T3”; in the assay with J20 mice [2] (after 4-week washout), “NOR deficits reappeared; also recorded: reappeared after the WO period”; in the assay on J20 mice [2] (after additional 2 weeks of injections (Treatment 2)), “continued to perform normally; also recorded: reversed and reached near-normal levels”. In the assay with J20 mice [3] (ELISA, hippocampal tissue), the “RIPA-soluble Aβ38, Aβ40, Aβ42, total Aβ, Aβ42/total Aβ” value was “do not detect major differences”. Moreover, the “formic acid soluble Aβ measures” value in the assay on J20 mice [3] (cortical) is recorded as “not reduced”. The “amyloid levels in RIPA-soluble protein extracts” value with J20 mice [3] (cortical tissue) is listed as “no effect”. Also, the “immunopositive density of amyloid staining” value with J20 mice [3] (hippocampi and cortex, 16 and 20 week washout) is recorded as “slightly less amyloid”. The “formic acid soluble Aβ42/total Aβ” value in the assay on J20 mice [3] (hippocampi, 20 week washout) is given as “lower”. Also, in the assay with J20 mice [3] (hippocampus, 20 week washout), the “RIPA-soluble Aβ42/total Aβ” value is given as “slightly decreased”. Further, the “GFAP astrogliosis in cortex and hippocampus” value with J20 mice [4] (after Treatment 3) is listed as “almost returned to WT levels”. The GFAP in cortex entry with J20 mice [4] (densitometry, 12 injections) was “reduced in VX-765-treated J20 cortex, but the data did not reach statistical significance”.
